Test results reported in article PMC7997578, “Design, Synthesis, Dynamic Docking, Biochemical Characterization, and in Vivo Pharmacokinetics Studies of Novel Topoisomerase II Poisons with Promising Antiproliferative Activity” (Journal of Medicinal Chemistry, 2020).
Values after ≈ are worked out from the molar mass of the structure shown. Like-named read-outs stand apart in the source and are kept apart here.

Key:
human topoIIα = molecular target: T1, human topoIIα (Homo sapiens, UniProt P11388); experiment: topoII decatenation assay (Inspiralis); assay type: biochemical
T1 construct: purchased Inspiralis
T1 sequence (P11388 whole entry): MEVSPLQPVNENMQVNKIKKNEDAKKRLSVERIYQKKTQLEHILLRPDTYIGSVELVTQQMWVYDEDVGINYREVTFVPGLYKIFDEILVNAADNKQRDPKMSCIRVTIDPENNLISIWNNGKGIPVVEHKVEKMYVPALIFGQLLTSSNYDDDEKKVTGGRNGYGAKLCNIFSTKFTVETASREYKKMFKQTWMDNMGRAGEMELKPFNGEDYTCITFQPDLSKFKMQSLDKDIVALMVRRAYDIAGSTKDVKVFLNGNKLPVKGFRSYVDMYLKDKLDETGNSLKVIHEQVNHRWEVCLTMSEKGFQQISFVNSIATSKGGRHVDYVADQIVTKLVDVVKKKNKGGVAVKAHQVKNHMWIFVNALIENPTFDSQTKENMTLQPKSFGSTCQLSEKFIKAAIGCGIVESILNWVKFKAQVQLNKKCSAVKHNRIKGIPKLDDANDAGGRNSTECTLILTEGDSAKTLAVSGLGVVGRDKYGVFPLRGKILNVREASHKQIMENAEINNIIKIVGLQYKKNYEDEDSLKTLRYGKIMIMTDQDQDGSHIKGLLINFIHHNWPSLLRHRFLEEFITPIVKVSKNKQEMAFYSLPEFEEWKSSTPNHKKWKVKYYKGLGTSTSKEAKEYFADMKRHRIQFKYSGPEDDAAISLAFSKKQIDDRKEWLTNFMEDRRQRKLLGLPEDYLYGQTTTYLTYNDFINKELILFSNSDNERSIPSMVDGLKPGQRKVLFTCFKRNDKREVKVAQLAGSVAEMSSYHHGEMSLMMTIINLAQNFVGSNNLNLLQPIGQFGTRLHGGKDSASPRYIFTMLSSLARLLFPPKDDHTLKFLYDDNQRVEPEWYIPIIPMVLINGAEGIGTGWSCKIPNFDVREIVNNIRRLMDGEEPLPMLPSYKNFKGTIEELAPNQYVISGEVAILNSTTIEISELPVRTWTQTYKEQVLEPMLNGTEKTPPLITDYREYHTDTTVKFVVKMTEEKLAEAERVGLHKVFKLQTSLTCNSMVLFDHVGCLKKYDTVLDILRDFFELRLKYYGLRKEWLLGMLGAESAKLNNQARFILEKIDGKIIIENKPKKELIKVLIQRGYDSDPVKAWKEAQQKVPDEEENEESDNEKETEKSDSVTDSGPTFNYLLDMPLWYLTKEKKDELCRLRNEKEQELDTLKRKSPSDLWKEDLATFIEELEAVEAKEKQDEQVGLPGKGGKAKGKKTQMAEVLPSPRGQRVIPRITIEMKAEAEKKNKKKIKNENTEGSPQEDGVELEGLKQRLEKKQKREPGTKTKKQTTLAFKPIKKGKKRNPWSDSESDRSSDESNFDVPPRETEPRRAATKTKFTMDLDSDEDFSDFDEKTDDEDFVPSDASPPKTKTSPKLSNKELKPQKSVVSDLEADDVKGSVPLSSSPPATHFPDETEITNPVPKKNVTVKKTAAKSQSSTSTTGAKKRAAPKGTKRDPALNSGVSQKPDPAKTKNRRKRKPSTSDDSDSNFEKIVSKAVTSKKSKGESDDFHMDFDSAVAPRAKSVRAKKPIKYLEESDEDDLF
Method: We measured the inhibitor activity of our new compounds against human topoIIα, using a topoII decatenation assay (Table 1).
The activity of topoIIα was measured using a decatenation assay (Inspiralis) following the manufacturer’s instructions. Compounds were dissolved in DMSO and used at a concentration ranging from 200 to 1 μM. Final DMSO concentration in the assay was ≤1%. Reaction mixtures were incubated for 30 min at 37 °C and terminated with STEB buffer (40% (w/v) sucrose, 100 mM Tris-HCl, pH 8, 1 mM EDTA, 0.5 mg/mL bromophenol blue). Reaction products were resolved by electrophoresis in 1% agarose gels containing SYBR Safe DNA stain (Invitrogen), scanned, and quantified using the ChemiDoc system (BioRad). IC50 values were obtained with GraphPad Prism software (version 5.03) using the band intensities of the dose–response gels. Values are reported as the mean ± SD of two independent experiments.

HeLa cells = experiment: cell viability MTT assay, HeLa; assay type: cell-based, human; details: HeLa cervical cancer cells, mean ± SD of two experiments, read-out: HeLa antiproliferative activity IC50
Method: The antiproliferative activity of all compounds was evaluated in (i) DU145, an androgen-independent prostate cancer cell line; (ii) HeLa, a cervical cancer cell line; and (iii) A549, a lung adenocarcinoma cell line (Table 1). […] Undoubtedly, this preliminary cytotoxicity data will need further characterization, also in relation to the in vitro activity of these compounds.
Human cancer cell lines A549 (lung adenocarcinoma, ATCC CCL-185), DU-145 (androgen-independent prostate cancer, ATCC HTB-81), and HeLa (cervical carcinoma, ATCC CCL-2) were obtained from ATCC. Cells were routinely grown in minimal essential medium containing Eagle’s salts and L-glutamine supplemented with 10% heat-inactivated FBS in a humidified atmosphere of 5% CO2 at 37 °C. To assess the antiproliferative activity of the compounds, cells were seeded at a density of 2500 cells/well (HeLa) or 5000 cells/well (A549, DU-145) in 96-well plates, and cell viability was measured using the MTT assay as described previously.[39] Values are reported as the mean ± SD of two independent experiments.

[1] = molecular target: T2, topoII/DNA cleavage complex (Homo sapiens, UniProt P11388); experiment: topoisomerase II cleavage complex assay; assay type: biochemical
T2 construct: purchased Inspiralis
T2 sequence (P11388 whole entry, one chain of several): as the sequence (P11388 whole entry) above
Method: Figure 2 Poison activity of the hybrid compounds. Agarose gel electrophoresis of plasmid DNA incubated in the absence (no enzyme) or presence of 1 U of topoII containing either 1% DMSO as control vehicle (no enzyme and topoII lanes) or 200 μM compound. Labels are shown above each lane. Numbers at the bottom correspond to the normalized intensity of the linear form (FIII). Plasmid forms are indicated by the arrow-points on the right: supercoiled (FI), nicked (FII), and linear (FIII).
Poison activity of the compounds was evaluated using a cleavage complex assay (Inspiralis) as described previously.[60] Compounds were tested at a fixed concentration of 200 μM in the presence of 1 U of topoisomerase II and 500 ng of […] plasmid at 37 °C for 6 min. Final DMSO concentration in the assay was 1%. Reaction products were subjected to electrophoresis in a 1% agarose gel, stained with SYBR Safe DNA stain, and DNA bands were visualized and quantified as described above.

[2] = aqueous thermodynamic solubility; assay type: physicochemical; details: PBS pH 7.4, 24 h, 25°C
Method: (§1) 3. Aqueous t herm odynam ic solu bili ty
(§2) The thermodynamic solubility of 3f was determined by addition of Phosphate Buffered Saline (PBS) at pH 7. 4 to an exces s of solid compound.
(§3) The assay was performed by incubation of an aliquot of 2. 5mg of test compound in 500µL of PBS at pH 7. 4. The suspension was shaken at 300 RPM for 24h at 25°C. At the end of the incubation period, the saturated solution was filtered and analyzed by UPLC/MS for the quantification of dissolved compound (in µM) by UV at a specific wavelength ( λmax of the test compound). The analyses were performed on a Waters ACQUITY UPLC/MS SQD system equipped with an ESI ion source. The analyses were run on an ACQUITY UPLC BEH C 18 column (50x2. 1mmI D, particle size 1. 7µm) with a VanGuard BEH C 18 pr e-column (5x2. 1mmID, particle size 1. 7µm), using H 2O + 0. 1% HCOOH (A) and CH 3CN + 0. 1% HCOOH (B) as mobile phase.
(§4) 4. Plasm a Protei n Bindi ng
(§5) The assay was conducted in triplicate in human and mouse plasma. An appropriate volume of plasma was spiked with a known amount of 10mM DMSO stock solution of the test compound, thus reaching the incubation concentrations of 0. 5, 1 and 5 µM. […] At this point, the supernatants were ready for injections in the UPLC -MS/ MS system. […] Plasma protein binding was calculated applying appropriate corrections to compensate for dilutions during sampling.

[3] = plasma protein binding (rapid equilibrium dialysis), human; assay type: in vitro ADME; details: pH 7.4
Method: as §1, §2, §3, §4, §5

## O=C(Nc1cccc(OC(F)(F)F)c1)c1c(O)n(-c2ccccc2)c(=S)n(-c2ccccc2)c1=O [3f, 6-Hydroxy-4-oxo-1,3-diphenyl-2-thioxo-N-(3-(trifluoromethoxy)phenyl)-1,2,3,4-tetrahydropyrimidine-5-carboxamide]
Human topoIIα; human topoIIα decatenation assay, mean ± SD of two independent experiments, read-out: IC50
  IC50: 7.3 ± 1.5 µM
Human topoIIα; topoIIα decatenation IC50 versus ARN16267
  fold increased activity compared to ARN16267: 2 fold
HeLa cells
  IC50: 3.8 ± 0.3 µM
HeLa cells; Homo sapiens, HeLa
  IC50: < 5 µM
[1]; 200 μM compound, 1 U topoII, plasmid DNA
  mode of action in cleavage complex formation assay: confirmed to be poisons
[1]; 200 μM concentration, linear form (FIII) intensity
  poison efficacy, fold better than ARN16267: about 1.5 fold
[2]
  solubility thermodynamic at 24 h: 30 µM (≈ 15 µg/mL)
[3]
  fraction unbound at 3 h: < 0.01
